The results in this text go back to patent publication US20230265151A1, “GIP/GLP1 CO-AGONIST COMPOUNDS” (priority 2020, published 2023).

A word on the Emax: it is the greatest response seen or fitted, relative to the assay's reference. For orientation: EC50 means the concentration needed to bring the measured effect to its halfway point.

Like-named read-outs stand apart in the source and are kept apart here. *1 amine or outer side, *2 acyl side, *3 side chain or, on linkers, in order; H or OH if unused. Where a SMILES comes first, the peptide text is derived from it. Side-chain parts run from the residue outwards. [ ]: non-standard residue; d: D form. The star is where a group is joined. αMePhe(2-F) = C[C@](N)(Cc1ccccc1F)C(=O)O; γGlu = O=C(O)[C@H](CCC(=O)[*:2])N[*:1]; αMeY = C[C@](N)(Cc1ccc(O)cc1)C(=O)O; αMeF = C[C@](N)(Cc1ccccc1)C(=O)O; 4Pal = N[C@@H](Cc1ccncc1)C(=O)O; αMeL = CC(C)C[C@](C)(N)C(=O)O; Lauroyl = CCCCCCCCCCCC(=O)*; Orn = NCCC[C@H](N)C(=O)O; AEEA = NCCOCCOCC(=O)O; Aib = CC(C)(N)C(=O)O Some results are limits rather than exact numbers.

Common to all, as to type: cell-based
Assay [1] has as its target T1, hGIPR (Homo sapiens, UniProt P48546).
T1 construct: expressed in transfected cells
T1 sequence (P48546 22-466): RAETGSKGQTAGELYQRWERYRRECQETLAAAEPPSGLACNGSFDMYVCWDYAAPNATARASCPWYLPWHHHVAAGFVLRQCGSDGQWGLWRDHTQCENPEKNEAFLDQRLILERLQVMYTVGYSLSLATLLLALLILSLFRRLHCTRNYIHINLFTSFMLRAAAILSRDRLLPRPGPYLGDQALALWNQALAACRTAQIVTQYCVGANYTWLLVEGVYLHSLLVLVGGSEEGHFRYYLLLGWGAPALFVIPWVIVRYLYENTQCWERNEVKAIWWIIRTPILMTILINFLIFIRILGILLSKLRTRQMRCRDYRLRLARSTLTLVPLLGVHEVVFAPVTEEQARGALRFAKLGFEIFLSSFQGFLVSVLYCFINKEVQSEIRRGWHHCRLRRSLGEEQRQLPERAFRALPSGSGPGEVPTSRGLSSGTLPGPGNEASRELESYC
Nature of the assay: Functional cAMP formation (HTRF) in HEK-293 clonal cells expressing hGIPR, 0.1% bovine casein, without or with 1.0% human serum albumin. Conditions: for EC50: geometric mean, read-out: hGIPR EC50, nM (SEM, n). The essentials: (§1)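 Readings of the HTRF 665/620 nm ratio, which falls as cAMP rises, were converted to nM cAMP using a standard curve after 30 min peptide exposure at 37° C.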
For orientation: cAMP levels reflect the balance of adenylyl cyclase and phosphodiesterase activity.

Assay [2] has as its target T2, hGCGR (Homo sapiens, UniProt P47871).
T2 construct: expressed in transfected cells
Kind of assay: Functional cAMP formation (HTRF) in HEK-293 clonal cells expressing hGCGR, 0.1% bovine casein, without or with 1.0% human serum albumin. The procedure, abridged: as §1

For assay [3], the target named is hGLP-1R (Homo sapiens, UniProt P43220). Kind of assay: Functional cAMP formation (HTRF) in HEK-293 clonal cells expressing hGLP-1R, 0.1% bovine casein, without or with 1.0% human serum albumin. Details: expressed in transfected cells. Conditions: for EC50: geometric mean. The essentials: as §1
hGLP-1R, sequence (P43220 24-463): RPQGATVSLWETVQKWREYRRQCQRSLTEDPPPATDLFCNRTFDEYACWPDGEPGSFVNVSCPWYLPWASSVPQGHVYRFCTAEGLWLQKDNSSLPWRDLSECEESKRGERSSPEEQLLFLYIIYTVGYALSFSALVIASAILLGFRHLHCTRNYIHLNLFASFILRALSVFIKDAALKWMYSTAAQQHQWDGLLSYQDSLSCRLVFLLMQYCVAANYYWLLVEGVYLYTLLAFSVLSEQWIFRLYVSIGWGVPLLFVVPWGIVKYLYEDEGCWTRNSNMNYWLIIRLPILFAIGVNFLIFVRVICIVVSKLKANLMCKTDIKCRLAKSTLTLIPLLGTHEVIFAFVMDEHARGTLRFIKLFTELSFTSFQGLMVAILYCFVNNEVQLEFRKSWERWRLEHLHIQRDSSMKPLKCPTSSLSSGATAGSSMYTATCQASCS

T2 sequence (P47871 26-477): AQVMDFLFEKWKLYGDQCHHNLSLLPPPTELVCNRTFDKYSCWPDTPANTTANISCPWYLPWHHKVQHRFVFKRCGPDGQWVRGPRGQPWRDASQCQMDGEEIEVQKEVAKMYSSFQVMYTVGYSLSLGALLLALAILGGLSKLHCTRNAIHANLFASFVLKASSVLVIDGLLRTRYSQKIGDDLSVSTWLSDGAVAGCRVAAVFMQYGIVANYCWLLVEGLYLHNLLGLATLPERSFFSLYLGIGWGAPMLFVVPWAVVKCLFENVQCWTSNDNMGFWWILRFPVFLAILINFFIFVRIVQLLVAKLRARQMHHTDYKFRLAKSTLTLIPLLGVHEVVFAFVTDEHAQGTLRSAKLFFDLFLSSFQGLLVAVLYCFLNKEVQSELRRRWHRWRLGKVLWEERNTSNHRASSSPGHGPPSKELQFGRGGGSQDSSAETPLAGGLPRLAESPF

With `CC[C@H](C)[C@H](NC(=O)[C@H](CC(C)C)NC(=O)[C@](C)(Cc1ccc(O)cc1)NC(=O)[C@H](CCCCNC(=O)[C@@H](N)CCCCNC(=O)[C@@H](N)CCCCNC(=O)CC[C@H](NC(=O)CCCCCCCCCCCCC(=O)O)C(=O)O)NC(=O)[C@@H](NC(=O)[C@H](Cc1ccccc1)NC(=O)[C@H](CCC(=O)O)NC(=O)C(C)(C)NC(=O)[C@H](CCC(N)=O)NC(=O)[C@H](C)NC(=O)[C@H](CCCCNC(=O)[C@@H](N)CCCCNC(=O)[C@@H](N)CCCCNC(=O)CC[C@H](NC(=O)CCCCCCCCCCCCC(=O)O)C(=O)O)NC(=O)[C@H](CCCN)NC(=O)[C@H](CC(=O)O)NC(=O)[C@H](CC(C)C)NC(=O)[C@](C)(CC(C)C)NC(=O)[C@@H](NC(=O)C(C)(C)NC(=O)[C@@H](NC(=O)[C@H](CC(=O)O)NC(=O)[C@H](CO)NC(=O)[C@@H](NC(=O)[C@](C)(Cc1ccccc1F)NC(=O)[C@@H](NC(=O)CNC(=O)[C@H](CCC(=O)O)NC(=O)C(C)(C)NC(=O)[C@@H](N)Cc1ccc(O)cc1)[C@@H](C)O)[C@@H](C)O)C(C)C)[C@@H](C)CC)[C@@H](C)CC)C(=O)N[C@@H](CCC(=O)O)C(=O)NCC(=O)NCC(=O)N1CCC[C@H]1C(=O)N[C@@H](CO)C(=O)N[C@@H](CO)C(=O)NCC(=O)N[C@@H](C)C(=O)N1CCC[C@H]1C(=O)N1CCC[C@H]1C(=O)N1CCC[C@H]1C(=O)N[C@@H](CO)C(N)=O` [Example 168], the maximum response (Emax) in assay [1] (HEK293, read-out: hGIPR Emax, % ± SEM, percent of maximal response to GIP(1-42)NH2, 37° C., 0.1% bovine casein, arithmetic mean) is 93%; in assay [3] (HEK293, read-out: hGLP-1R Emax, % ± SEM, percent of maximal response to GLP-1(7-36)NH2, 37° C., 0.1% bovine casein, arithmetic mean) it was 93.3%. In assay [2] (hGCGR EC50, nM (SEM, n), cAMP, incubated at 37° C., 0.1% bovine casein (no human serum albumin), geometric mean), this molecule displayed an EC50 of more than 9950 nM.

With `CC[C@H](C)[C@H](NC(=O)[C@H](CC(C)C)NC(=O)[C@](C)(Cc1ccc(O)cc1)NC(=O)[C@@H](CCC(=O)O)NC(=O)[C@@H](NC(=O)[C@H](Cc1ccccc1)NC(=O)[C@H](CCC(=O)O)NC(=O)C(C)(C)NC(=O)[C@H](CCC(N)=O)NC(=O)[C@H](C)NC(=O)[C@H](CCCCNC(=O)COCCOCCNC(=O)[C@@H](N)CCCCNC(=O)CC[C@H](NC(=O)CCCCCCCCCCCCC(=O)O)C(=O)O)NC(=O)[C@H](CCCN)NC(=O)[C@H](CC(=O)O)NC(=O)[C@H](CC(C)C)NC(=O)[C@](C)(CC(C)C)NC(=O)[C@@H](NC(=O)[C@H](CO)NC(=O)[C@H](Cc1ccncc1)NC(=O)[C@H](CC(=O)O)NC(=O)[C@H](CO)NC(=O)[C@@H](NC(=O)[C@](C)(Cc1ccccc1F)NC(=O)[C@@H](NC(=O)CNC(=O)[C@H](CCC(=O)O)NC(=O)C(C)(C)NC(=O)[C@@H](N)Cc1ccc(O)cc1)[C@@H](C)O)[C@@H](C)O)[C@@H](C)CC)[C@@H](C)CC)C(=O)N[C@@H](CCC(=O)O)C(=O)NCC(=O)NCC(=O)N[C@@H](CCCCNC(=O)COCCOCCNC(=O)[C@@H](N)CCCCNC(=O)CC[C@H](NC(=O)CCCCCCCCCCCCC(=O)O)C(=O)O)C(=O)N[C@@H](CO)C(=O)N[C@@H](CO)C(=O)NCC(=O)N[C@@H](C)C(=O)N1CCC[C@H]1C(=O)N1CCC[C@H]1C(=O)N1CCC[C@H]1C(=O)N[C@@H](CO)C(N)=O` [Example 35], the EC50 is 0.35 nM in assay [1] (0.1% bovine casein and 1.0% human serum albumin, 37° C.); 0.0162 nM in assay [1] (cAMP, incubated at 37° C., 0.1% bovine casein (no human serum albumin)); more than 9950 nM in assay [2] (0.1% bovine casein and 1.0% human serum albumin, 37° C., geometric mean, read-out: hGCGR EC50, nM (SEM, n)); more than 9950 nM in assay [2] (cAMP, incubated at 37° C., 0.1% bovine casein (no human serum albumin), geometric mean, read-out: hGCGR EC50, nM (SEM, n)); 16.4 nM in assay [3] (0.1% bovine casein and 1.0% human serum albumin, 37° C., read-out: hGLP-1R EC50, nM (SEM, n)). Moreover, the maximal response (Emax) in assay [1] (HEK293, 0.1% bovine casein and 1.0% human serum albumin, 37° C., percent of maximal response to GIP(1-42)NH2, read-out: hGIPR Emax, % ± SEM) is 91.7 ± 1.28%; in assay [1] (HEK293, percent of maximal response to GIP(1-42)NH2, 37° C., 0.1% bovine casein, arithmetic mean, read-out: hGIPR Emax, % ± SEM) it was 97 ± 2.32%.

Turning to `CC[C@H](C)[C@H](NC(=O)[C@H](CCCN)NC(=O)[C@H](CC(=O)O)NC(=O)[C@H](CC(C)C)NC(=O)[C@](C)(CC(C)C)NC(=O)[C@@H](NC(=O)[C@H](CO)NC(=O)[C@H](CCc1ccc(O)cc1)NC(=O)[C@H](CC(=O)O)NC(=O)[C@H](CO)NC(=O)[C@@H](NC(=O)[C@](C)(Cc1ccccc1F)NC(=O)[C@@H](NC(=O)CNC(=O)[C@H](CCC(=O)O)NC(=O)C(C)(C)NC(=O)[C@@H](N)Cc1ccc(O)cc1)[C@@H](C)O)[C@@H](C)O)[C@@H](C)CC)C(=O)N[C@@H](C)C(=O)N[C@@H](CCC(N)=O)C(=O)NC(C)(C)C(=O)N[C@@H](CCCCNC(=O)COCCOCCNC(=O)COCCOCCNC(=O)CC[C@H](NC(=O)CCCCCCCCCOc1ccc(C(=O)O)cc1)C(=O)O)C(=O)N[C@@H](Cc1ccccc1)C(=O)N[C@H](C(=O)N[C@H](CCC(=O)O)C(=O)N[C@@](C)(Cc1ccc(O)cc1)C(=O)N[C@@H](CC(C)C)C(=O)N[C@H](C(=O)N[C@@H](CCCCNC(=O)COCCOCCNC(=O)COCCOCCNC(=O)CC[C@H](NC(=O)CCCCCCCCCOc1ccc(C(=O)O)cc1)C(=O)O)C(=O)NCC(=O)NCC(=O)N1CCC[C@H]1C(=O)N[C@@H](CO)C(=O)N[C@@H](CO)C(=O)NCC(=O)N[C@@H](C)C(=O)N1CCC[C@H]1C(=O)N1CCC[C@H]1C(=O)N1CCC[C@H]1C(=O)N[C@@H](CO)C(N)=O)[C@@H](C)CC)[C@@H](C)CC` [Example 332], the Emax in assay [1] (HEK293, read-out: hGIPR Emax, % ± SEM, cAMP, 37° C., 0.1% bovine casein and 1.0% human serum albumin, percent of maximal response to GIP(1-42)NH2) came to 96.5%; in assay [3] (HEK293, read-out: hGLP-1R Emax, % ± SEM, cAMP, 37° C., 0.1% bovine casein and 1.0% human serum albumin, percent of maximal response to GLP-1(7-36)NH2), 116%; in assay [3] (HEK293, read-out: hGLP-1R Emax, % ± SEM, cAMP, 37° C., 0.1% bovine casein, percent of maximal response to GLP-1(7-36)NH2, arithmetic mean), 114%. In addition, the EC50 in assay [2] (hGCGR EC50, nM (SEM, n), cAMP, 37° C., 0.1% bovine casein (no human serum albumin), geometric mean) is more than 9950 nM; in assay [2] (hGCGR EC50, nM (SEM, n), cAMP, 37° C., 0.1% bovine casein and 1.0% human serum albumin, geometric mean (SEM, n)), more than 9950 nM; in assay [3] (hGLP-1R EC50, nM (SEM, n), cAMP, 37° C., 0.1% bovine casein (no human serum albumin)), 0.263 nM.

For the molecule `CCCCCCCCCCCC(=O)N[C@@H](CCC(=O)NCCOCCOCC(=O)NCCOCCOCC(=O)NCCCC[C@H](NC(=O)[C@H](CO)NC(=O)[C@@H]1CCCN1C(=O)[C@@H]1CCCN1C(=O)[C@@H]1CCCN1C(=O)[C@H](C)NC(=O)CNC(=O)[C@H](CO)NC(=O)[C@H](CO)NC(=O)[C@@H]1CCCN1C(=O)CNC(=O)CNC(=O)[C@H](CCC(=O)O)NC(=O)[C@@H](NC(=O)[C@H](CC(C)C)NC(=O)[C@](C)(Cc1ccc(O)cc1)NC(=O)[C@@H](CCC(=O)O)NC(=O)[C@@H](NC(=O)[C@](C)(Cc1ccccc1)NC(=O)[C@H](CCC(=O)O)NC(=O)C(C)(C)NC(=O)[C@H](CCC(N)=O)NC(=O)[C@H](C)NC(=O)[C@H](CCCCNC(=O)COCCOCCNC(=O)COCCOCCNC(=O)CC[C@H](NC(=O)CCCCCCCCCCC)C(=O)O)NC(=O)[C@H](CCCN)NC(=O)[C@H](CC(=O)O)NC(=O)[C@H](CC(C)C)NC(=O)[C@](C)(CC(C)C)NC(=O)[C@@H](NC(=O)C(C)(C)NC(=O)[C@H](Cc1ccncc1)NC(=O)[C@H](CC(=O)O)NC(=O)[C@H](CO)NC(=O)[C@@H](NC(=O)[C@](C)(Cc1ccccc1F)NC(=O)[C@@H](NC(=O)CNC(=O)[C@H](CCC(=O)O)NC(=O)C(C)(C)NC(=O)[C@@H](N)Cc1ccc(O)cc1)[C@@H](C)O)[C@@H](C)O)[C@@H](C)CC)[C@@H](C)CC)[C@@H](C)CC)C(N)=O)C(=O)O` [Example 431] (H-Y[Aib]EGT[αMePhe(2-F)]TSD[4Pal][Aib]I[αMeL]LD[Orn]K([AEEA-AEEA-γGlu-Lauroyl])AQ[Aib]E[αMeF]I[dE][αMeY]LIEGGPSSGAPPPSK([AEEA-AEEA-γGlu-Lauroyl])-NH2), the maximal response (Emax) in assay [1] (HEK293, cAMP, 37° C., 0.1% bovine casein and 1.0% human serum albumin, percent of maximal response to GIP(1-42)NH2, read-out: hGIPR Emax, % ± SEM) came out at 98%; in assay [3] (HEK293, cAMP, 37° C., 0.1% bovine casein and 1.0% human serum albumin, percent of maximal response to GLP-1(7-36)NH2, read-out: hGLP-1R Emax, % ± SEM), 91.6%. Besides, the EC50 in assay [1] (cAMP, 37° C., 0.1% bovine casein (no human serum albumin)) was 0.0097 nM; in assay [2] (cAMP, 37° C., 0.1% bovine casein (no human serum albumin), geometric mean, read-out: hGCGR EC50, nM (SEM, n)), more than 9950 nM; in assay [2] (cAMP, 37° C., 0.1% bovine casein and 1.0% human serum albumin, geometric mean (SEM, n), read-out: hGCGR EC50, nM (SEM, n)) it was more than 9950 nM; in assay [3] (cAMP, 37° C., 0.1% bovine casein (no human serum albumin), read-out: hGLP-1R EC50, nM (SEM, n)) it was 0.134 nM.
